{"source": "paper PMC5473854", "about": "“Structure of the human TRiC/CCT Subunit 5 associated with hereditary sensory neuropathy” (Scientific Reports, 2017)", "target": "T1, human CCT5 (TRiC subunit 5) homo-oligomeric complex (Homo sapiens, UniProt P48643, H147R)", "T1 construct": "recombinant from pET21a in E. coli BL21(DE3)RIL, Histrap purified (tag not described here); double homo-octameric ring (two rings of eight, homo-hexadecamer)", "T1 sequence (P48643 whole entry H147R, the tested form may be a part, one chain of several)": "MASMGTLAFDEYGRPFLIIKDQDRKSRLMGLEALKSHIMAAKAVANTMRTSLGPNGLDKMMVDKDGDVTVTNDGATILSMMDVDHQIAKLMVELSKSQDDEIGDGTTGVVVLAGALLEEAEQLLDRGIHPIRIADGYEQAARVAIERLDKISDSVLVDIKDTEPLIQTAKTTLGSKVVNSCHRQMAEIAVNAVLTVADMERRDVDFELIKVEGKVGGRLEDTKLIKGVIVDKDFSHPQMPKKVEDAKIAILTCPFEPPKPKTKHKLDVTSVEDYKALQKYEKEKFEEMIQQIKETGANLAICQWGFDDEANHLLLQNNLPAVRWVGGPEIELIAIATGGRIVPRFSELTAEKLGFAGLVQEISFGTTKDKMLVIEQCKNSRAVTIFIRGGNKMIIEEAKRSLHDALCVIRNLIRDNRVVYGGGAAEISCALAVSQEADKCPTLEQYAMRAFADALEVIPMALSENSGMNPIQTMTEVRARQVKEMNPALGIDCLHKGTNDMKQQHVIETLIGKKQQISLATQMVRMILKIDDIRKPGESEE", "assay": "X-ray crystal structure, […] Å", "settings": "co-crystallised with 5.0 mM ADP; nucleotide-binding site of equatorial domain; 4 ADP per 4 subunits in asymmetric unit"}
{"smiles": "Nc1ncnc2c1ncn2[C@@H]1O[C@H](COP(=O)(O)OP(=O)(O)O)[C@@H](O)[C@H]1O", "note": "[ADP]", "values": [{"measurement": "X-ray crystal structure, 3.6 Å", "value": "the CCT5-H147R structure was solved in complex with the nucleotide ADP"}]}
